Data as given in patent US20120270935A1, “FORMULATIONS” (priority 2009, published 2012).
Values after ≈ are worked out from the molar mass of the structure shown. Where two headings read alike, the source gives them in different places.

Experiments:
S. mutans ATCC 25175 = experiment: MBC assay; assay type: cell-based, Streptococcus mutans; settings: Wilkins-Chalgren broth pH 7 (±0.2)
Text: (§1) (a) staphylococci. The Staphylococcus aureus strain used was ATCC 29213. S. aureus and other staphylococci are common causes of a wide range of skin, skin structure and wound infections; S. aureus is also known to exacerbate eczema. The ATCC 29213 strain is known to be susceptible to beta-lactam antibiotics such as methicillin. The Staphylococcus epidermidis strain used was NCTC 11047. Staph. epidermidis forms part of the resident flora of skin and is an opportunistic pathogen which can cause biofilms to grow for instance on plastic surgical implants such as catheters. Unless otherwise stated, the staphylococci were cultured and maintained on Mueller-Hinton Medium (agar and broth) at pH 7.2; cultures were incubated aerobically at 37° C. for 19-20 hours, at pH 7 (±0.2). (b) C. striatum NCTC 764. Corynebacterium striatum is closely related to organisms (aerobic diphtheroids of the genus Corynebacterium) that cause body odour. It was cultured and maintained on Mueller-Hinton medium (agar and broth). All cultures were incubated aerobically at 37° C. for 72 hours, at pH 7 (±0.2). (c) streptococci. The strains tested were S. mutans ATCC 25175 and S. pyogenes ATCC 12344. S. mutans is a Gram-positive, microaerophilic bacterium which plays a significant role in dental caries and in infective endocarditis. Streptococcus pyogenes is associated with skin, soft tissue, burn and wound infections. […]

S. aureus ATCC 29213 [1] = experiment: MBC assay; assay type: cell-based, Staphylococcus aureus; settings: Mueller-Hinton broth pH 7.0
Text: as §1, with “infections. S. mutans was cultured and maintained on Wilkins-Chalgren Anaerobe medium+1 g/L glucose (agar and broth); it was incubated in air at 37° C. for 48 hours, at pH 7 (±0.2) with 5% carbon dioxide. S. pyogenes was cultured and maintained on Mueller-Hinton medium (broth and agar) and was incubated under the same conditions as S. mutans.” for “infections.”
(§2) Example 8 was repeated (except for the supplemented DDA assays), using S. aureus ATCC 29213 as the test organism. […] In the DDA assays, 200 μg is of each compound was loaded onto each disc: the culture medium was Mueller-Hinton agar at pH 7.0, and results were recorded after overnight incubation at 37° C. in air. […]

S. aureus ATCC 29213 [2] = experiment: Disc diffusion assay (DDA); assay type: cell-based, Staphylococcus aureus; settings: 200 μg per disc, Mueller-Hinton agar pH 7.0, overnight at 37° C. in air
Text: as §1
(§3) A sterile paper disc was impregnated with a sample of the test compound in a suitable solvent and 30 minutes allowed for the solvents to evaporate (where possible). […] The diameter of this zone of “inhibition” was measured using a ProtoCOL™ automated zone sizer (Synbiosis, Cambridge, UK). […]
as §2

[3] = system: S. epidermidis NCTC 11047; experiment: Disc diffusion assay (DDA); assay type: cell-based, Staphylococcus epidermidis; settings: 200 μg per disc; Mueller-Hinton agar pH 7.0; overnight at 37° C. in air
Text: (a) staphylococci. The Staphylococcus aureus strain used was ATCC 29213. S. aureus and other staphylococci are common causes of a wide range of skin, skin structure and wound infections; S. aureus is also known to exacerbate eczema. The ATCC 29213 strain is known to be susceptible to beta-lactam antibiotics such as methicillin. The Staphylococcus epidermidis strain used was NCTC 11047. Staph. epidermidis forms part of the resident flora of skin and is an opportunistic pathogen which can cause biofilms to grow for instance on plastic surgical implants such as catheters. Unless otherwise stated, the staphylococci were cultured and maintained on Mueller-Hinton Medium (agar and broth) at pH 7.2; cultures were incubated aerobically at 37° C. for 19-20 hours, at pH 7 (±0.2). (b) C. striatum NCTC 764. […]
as §3, §2

Row | Structure (SMILES) | MBC (S. mutans ATCC 25175) | MBC (S. aureus ATCC 29213 [1]) | DDA zone diameter (S. aureus ATCC 29213 [2]) | DDA zone diameter [3] | MBC (S. mutans ATCC 25175; Streptococcus mutans, ATCC25175, read-out: MBC) | MBC (S. aureus ATCC 29213 [1]; Staphylococcus aureus, ATCC29213, read-out: MBC) | zone of inhibition at 200 µg/disc (S. aureus ATCC 29213 [2]; Staphylococcus aureus, ATCC29213, read-out: DDA zone diameter)
1 | CC(=O)c1c([O-])c(C)c([O-])c2c1OC1=CC(=O)C(C(C)=O)C(=O)C12C.[Cu+2] (stereo not shown) [Copper usnate, copper (II) usnate] | 31.25 µg/mL | 62.5 µg/mL | 14.8 ± 0.3 mm | 25.7 ± 0.6 mm | – | – | –
2 | CC(=O)c1c(O)c(C)c(O)c2c1OC1=CC(=O)C(C(C)=O)C(=O)C12C (stereo not shown) [Usnic acid, 2,6-diacetyl-7,9-dihydroxy-8,9b-dimethyl-1,3(2H,9bh)-dibenzofurandione] | – | – | – | – | 125 µg/mL (≈ 363 µM) | 250 µg/mL (≈ 726 µM) | 13.6 ± 0.3 mm
